From BindingDB's records for patent US9890168 (Shanghai Haiyan Pharmaceutical Technology, 2018)

Biological target: Epidermal growth factor receptor (Homo sapiens, UniProt P00533)
Assay: Inhibition Assay
Protocol: The concentration of DMSO after addition of the compound prepared in the above examples of the present invention (i.e., the compound to be tested) was 2 vol %.The working concentrations of each component in 10 μL wild-type EGER kinase reaction system were: 10 μM ATP, 0.8 ng/μL wild-type EGFR kinase, 2 μM Tyr04 substrate (Invitrogen, PV3193). The concentration of DMSO after addition of the compound to be tested was 2 vol %.10 mM drug stock solution was dissolved at room temperature and diluted to a final concentration of 4-0.002 μM with 8 vol % DMSO solution. […] Then 2.5 μl of ATP was added to initiate the reaction. Wherein, ATP was replaced by the reaction buffer in C1 well, no drug was added to C2 well, and the phosphorylated substrate was added to C3 well according to the instructions. The mixture was allowed to react at 25° C. in a shaker in dark for 60 min, 5 μL of Development Reagent B (invitrogen, diluted with TR-FRET dilution buffer) was added and allowed to react at room temperature in the shaker for 60 minutes.

Chain of Epidermal growth factor receptor (P00533 whole entry): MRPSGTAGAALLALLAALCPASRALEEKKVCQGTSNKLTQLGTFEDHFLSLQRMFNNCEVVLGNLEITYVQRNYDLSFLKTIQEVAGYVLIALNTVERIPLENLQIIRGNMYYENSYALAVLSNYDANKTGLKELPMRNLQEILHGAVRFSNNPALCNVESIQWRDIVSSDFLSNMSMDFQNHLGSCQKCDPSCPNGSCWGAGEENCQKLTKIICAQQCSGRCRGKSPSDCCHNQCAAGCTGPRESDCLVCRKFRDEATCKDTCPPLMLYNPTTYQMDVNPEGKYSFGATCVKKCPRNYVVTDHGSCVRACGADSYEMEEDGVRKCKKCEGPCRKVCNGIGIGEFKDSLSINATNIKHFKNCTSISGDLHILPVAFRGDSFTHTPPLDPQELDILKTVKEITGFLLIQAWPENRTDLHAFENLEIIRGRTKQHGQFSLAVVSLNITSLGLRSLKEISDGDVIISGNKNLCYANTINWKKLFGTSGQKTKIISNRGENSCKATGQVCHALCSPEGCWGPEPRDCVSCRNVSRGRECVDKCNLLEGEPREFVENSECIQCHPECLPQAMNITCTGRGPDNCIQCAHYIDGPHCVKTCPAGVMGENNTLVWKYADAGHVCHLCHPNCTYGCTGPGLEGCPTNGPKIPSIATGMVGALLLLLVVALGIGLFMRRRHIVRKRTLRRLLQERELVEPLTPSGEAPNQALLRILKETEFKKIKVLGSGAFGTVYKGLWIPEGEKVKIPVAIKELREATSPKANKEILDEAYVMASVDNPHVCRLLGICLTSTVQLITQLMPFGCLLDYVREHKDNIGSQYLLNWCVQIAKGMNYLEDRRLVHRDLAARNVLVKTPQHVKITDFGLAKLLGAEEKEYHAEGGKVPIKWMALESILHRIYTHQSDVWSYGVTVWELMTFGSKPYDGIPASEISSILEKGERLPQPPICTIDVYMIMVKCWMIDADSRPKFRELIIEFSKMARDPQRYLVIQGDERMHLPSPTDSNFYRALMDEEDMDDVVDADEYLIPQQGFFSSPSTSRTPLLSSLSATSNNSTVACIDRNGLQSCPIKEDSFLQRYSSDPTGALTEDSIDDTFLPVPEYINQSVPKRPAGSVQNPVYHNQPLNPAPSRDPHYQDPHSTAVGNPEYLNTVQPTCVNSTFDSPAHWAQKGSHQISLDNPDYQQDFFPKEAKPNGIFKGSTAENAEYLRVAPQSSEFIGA

Row | Compound | IC50 [nM]
1 | C=CC(=O)Nc1cc(Nc2nc(-c3cnn(C)c3)c3cc[nH]c3n2)c(OC)cc1OCCN(C)C [US9890168, Compound 10] | 578
2 | C=CC(=O)Nc1cc(Nc2nc(-c3cnn(C)c3)c3c(C)c[nH]c3n2)c(OC)cc1N1CCC(N(C)C)CC1 [US9890168, Compound 14] | > 1000
